From patent US11859021B2, “Compounds for regulating trained immunity, and their methods of use” (Trained Therapeutix Discovery, Inc., priority 2021, dated 2024)

Assays:
[1] = HPLC retention times to compare lipophilicities; format: physicochemical; details: Kinetex EVO C18 column, same gradient A to B; higher retention time = more lipophilic
Description: Experimentally, one can also compare lipophilicities of molecules by performing HPLC using the same elution gradient. Molecules that have higher affinities with the hydrophobic C18-material of the column are more lipophilic and as a result have a higher retention time.
Methods: HPLC-MS(SIM) and HPLC-ELSD were performed on a Phenomenex Kinetex 5 micrometer EVO C18 100A LC-column (50×2.1 mm) employing the same gradient from A to B eluent, where A=20 mM NH4HCO2 in H2O with 0.1 v/v % formic acid, and B=2-propanol/MeCN/H2O 85:15:5, also with 20 mM NH4HCO2 and 0.1 v/v % formic acid.

[2] = Solubility test in PBS buffer; format: physicochemical; details: PBS pH 7.4, 0.2 mg/mL; for Appearance at 37° C.: 1 minute in 37° C. water bath; for Appearance at RT: room temperature
Description: First, compounds were weighed in a vial and PBS buffer (137, 2.7, 10 and 1.8 mM in NaCl, KCl, Na2HPO4, KH2PO4, respectively; pH=7.4) was added, such that the concentration would become 0.2 mg/mL in case full dissolution would take place. The sample was shaken, left to stand for an hour, shaken again, and then the appearance of the solution at room temperature (RT) was checked. Next, the sample was warmed for 1 minute in a water bath of 37° C., and the appearance of the solution was checked again. In the below table the results are compiled.

[3] = Solubility test in demineralized water; format: physicochemical; details: 0.3 mM, film, sonicated, overnight
Description: Next, compounds were weighed and dissolved in chloroform/methanol. The solutions were left to dry in a vial forming a film of the materials. The vials were put in vacuo to remove traces of organic solvent. Demineralized water was added, such that the concentration of the compounds would become 0.3 mM in case full dissolution would take place (0.3 mM corresponds to 0.3 mg/mL for a MW=1000 Dalton compound). The vial was briefly sonicated in a water bath, left to stand overnight, and once again sonicated (sonication at RT). The appearances of the solutions at RT were checked to assess solubilities. In the below table the results are compiled.

human NOD2 (hNOD2) = target: T1, human NOD2 (hNOD2) (Homo sapiens, UniProt Q9HC29); assay: In vitro NOD2 activation assay in HEK-Blue hNOD2 cells; format: cell-based; details: overnight incubation, FIG. 3
T1 construct: host or cells: HEK-Blue hNOD2 cells
T1 sequence (Q9HC29 whole entry): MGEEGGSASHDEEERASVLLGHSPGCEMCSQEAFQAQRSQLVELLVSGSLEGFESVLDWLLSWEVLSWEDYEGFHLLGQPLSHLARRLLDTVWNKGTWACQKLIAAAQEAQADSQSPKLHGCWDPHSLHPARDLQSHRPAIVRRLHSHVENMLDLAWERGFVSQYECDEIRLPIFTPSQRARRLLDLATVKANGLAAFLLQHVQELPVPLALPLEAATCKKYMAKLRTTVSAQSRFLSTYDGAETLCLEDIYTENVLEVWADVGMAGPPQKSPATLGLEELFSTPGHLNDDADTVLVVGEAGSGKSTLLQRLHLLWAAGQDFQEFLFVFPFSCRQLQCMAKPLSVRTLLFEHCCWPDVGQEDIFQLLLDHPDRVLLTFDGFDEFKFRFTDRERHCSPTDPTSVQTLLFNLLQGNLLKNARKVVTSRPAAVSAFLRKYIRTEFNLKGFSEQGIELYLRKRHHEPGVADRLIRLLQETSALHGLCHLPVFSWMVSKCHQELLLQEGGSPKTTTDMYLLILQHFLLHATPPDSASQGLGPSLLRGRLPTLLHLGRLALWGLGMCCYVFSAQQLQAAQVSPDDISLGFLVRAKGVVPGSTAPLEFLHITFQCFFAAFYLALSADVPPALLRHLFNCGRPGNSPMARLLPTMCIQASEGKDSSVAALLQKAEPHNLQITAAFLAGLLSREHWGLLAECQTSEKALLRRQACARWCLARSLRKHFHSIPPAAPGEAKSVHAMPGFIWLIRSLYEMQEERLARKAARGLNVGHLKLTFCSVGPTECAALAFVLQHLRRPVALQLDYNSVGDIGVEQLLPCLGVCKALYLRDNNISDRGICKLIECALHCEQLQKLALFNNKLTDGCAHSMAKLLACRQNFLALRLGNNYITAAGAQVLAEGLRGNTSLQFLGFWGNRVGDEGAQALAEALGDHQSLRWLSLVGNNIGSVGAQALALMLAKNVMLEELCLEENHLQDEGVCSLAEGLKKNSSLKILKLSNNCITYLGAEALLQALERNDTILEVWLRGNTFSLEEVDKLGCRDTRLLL
Description: The stimulation of human NOD2 (hNOD2) by compounds disclosed herein was studied by monitoring activation of NF-κB in HEK-Blue™ hNOD2 cells (Invitrogen). 50,000 HEK-Blue™ hNOD2 cells were seeded in HEK-Blue™ Detection Medium in flat-bottom tissue culture plates. Concentration ranges of the test article (compounds diluted from DMSO-solutions (17.8 mmoL/L), first with demineralized water and then with PBS to the desired concentrations) were added to the cells in the tissue culture plates. Cells were incubated overnight at 37° C. and 5% CO2. The following day, supernatants were collected in an ELISA plate and the OD was measured at 620 nm using a spectrophotometer.
The signal in this assay is based on NOD2 stimulation with a ligand which subsequently activates NF-κB and AP-1, resulting in the production of SEAP. Levels of SEAP were then determined with HEK-Blue™ Detection medium (Invitrogen). The hydrolysis of the substrate in the medium by SEAP produces a purple/blue color that was then measured with an Absorbance microplate reader. OD values are mapped based on test article concentration and are depicted in FIG. 3. Assay performance was validated with muramyl dipeptide (CAS number [53678-77-6]).

[4] = Degradation by augmented oxidation test; format: physicochemical; details: 12% hydrogen peroxide in water, 80° C., 4 hours
Description: The reference compounds MDP and MDP(Bn) as well as the Bn-substituted compounds from Example 7 (i.e. MDP(Bn)-DSPE[click] and Example 14 (i.e. MTP(Bn)-a-DPPE) were mixed with 12% hydrogen peroxide in water and were heated to 80° C. for 4 hours, in order to get a fast degradation of the molecules by oxidation, mimicking slower in-vivo oxidation events.
The resulting reaction mixtures were diluted with acetonitrile and water (1:1) for the MDP and MDP(Bn) test solutions, or with iPrOH, acetonitrile and water (40:7.5:52.5) with 0.1% formic acid and 20 mM ammonium formate for the MDP(Bn)-DSPE[click] and the MTP(Bn)-a-DPPE solutions. The 4 diluted samples were analyzed by HPLC-MS. For reference, the 4 starting materials were also analyzed by HPLC-MS, as well as MDP-DSPE[click] and MTP-a-DPPE, i.e. the de-benzylated reference compounds to the Bn-substituted test molecules.

Row | HPLC-ELSD t [1] | HPLC-MS t [1] | Appearance at 37° C. [2] | Appearance at RT [2] | Appearance at RT [3] | Structure (SMILES) | NOD2 activation (NF-κB/SEAP reporter, OD at 620 nm) (human NOD2 (hNOD2)) | Oxidative degradation, products by HPLC-MS [4]
1 | 4.58 min | 4.46 min | hazy | hazy | Gelly/hazy/precipitate | CCCCCCCCCCCCCCCCCC(=O)OC[C@H](COP(=O)(O)OCCNC(=O)Cn1cc(CNC(=O)CC[C@@H](NC(=O)[C@H](C)NC(=O)[C@@H](C)O[C@H]2[C@H](O)[C@@H](CO)OC(O)[C@@H]2NC(C)=O)C(N)=O)nn1)OC(=O)CCCCCCCCCCCCCCCCC (stereo partly shown) [Example 2, MDP-DSPE [Click]] | comparable | –
2 | 5.16 min | 5.16 min | hazy | suspension | Hazy | CCCCCCCCCCCCCCCCCC(=O)OC[C@H](COP(=O)(O)OCCNC(=O)Cn1cc(CNC(=O)CC[C@@H](NC(=O)[C@H](C)NC(=O)[C@@H](C)O[C@H]2[C@H](O)[C@@H](CO)OC(OCc3ccccc3)[C@@H]2NC(C)=O)C(N)=O)nn1)OC(=O)CCCCCCCCCCCCCCCCC (stereo partly shown) [Example 7, MDP(Bn)-DSPE [Click]] | comparable | mainly degraded via oxidation of the Bn-group to a benzoate group (+14) followed by hydrolysis of the benzoate (−104)
3 | – | – | – | – | Precipitate | CCCCCCCCCCCCCCCCCC(=O)OCc1cn(CCCC[C@H](NC(=O)CC[C@@H](NC(=O)[C@H](C)NC(=O)[C@@H](C)O[C@H]2[C@H](O)[C@@H](CO)OC(OCc3ccccc3)[C@@H]2NC(C)=O)C(N)=O)C(N)=O)nn1 (stereo partly shown) [Example 9, MTP-b-C18[Invclick]] | – | –
4 | – | – | – | – | Precipitate | CCCCCCCCCCCCCCCCCC(=O)NCCCC[C@H](NC(=O)CC[C@@H](NC(=O)[C@H](C)NC(=O)[C@@H](C)O[C@H]1[C@H](O)[C@@H](CO)OC(OCc2ccccc2)[C@@H]1NC(C)=O)C(N)=O)C(N)=O (stereo partly shown) [Example 10, MTP-b-C18] | – | –
5 | – | – | suspension | suspension | Precipitate | CCCCCCCCCCCCCCCCCCNC(=O)CC[C@@H](NC(=O)[C@H](C)NC(=O)[C@@H](C)O[C@H]1[C@H](O)[C@@H](CO)OC(O)[C@@H]1NC(C)=O)C(N)=O (stereo partly shown) [Example 11, MDP-C18] | – | –
6 | – | 0.95 min | clear | clear | Clear | CCCCCCCCCCCCCCCCCC(=O)OC[C@H]1OC(O)[C@H](NC(C)=O)[C@@H](O[C@H](C)C(=O)N[C@@H](C)C(=O)N[C@H](CCC(=O)O)C(N)=O)[C@@H]1O (stereo partly drawn) [MDP-C18[mur], N-Acetylmuramyl-L-Alanyl-D-Isoglutamine-6-O-Stearoyl, reference compound] | – | –
7 | 3.04 min | 2.85 min | clear | hazy | Clear | CCCCCCCCCCCCCCCC(=O)OC[C@H](COP(=O)(O)OCCNC(=O)[C@H](C)NC(=O)CC[C@@H](NC(=O)[C@H](C)NC(=O)[C@@H](C)O[C@H]1[C@H](O)[C@@H](CO)OC(O)[C@@H]1NC(C)=O)C(N)=O)OC(=O)CCCCCCCCCCCCCCC (stereo partly drawn) [Mifamurtide, N—(N-Acetylmuramoyl)-L-alanyl-D-alpha-glutaminyl-N-[(7R)-4-hydroxy-4-oxido-10-oxo-7-[(1-oxohexadecyl)oxy]-3,5,9-trioxa-4-phosphapentacos-1-yl]-L-alaninamide, reference compound] | – | –

Further lines, the compound ahead of its results:

Row | Structure (SMILES) | HPLC-ELSD t [1] | HPLC-MS t [1] | Appearance at 37° C. [2] | Appearance at RT [2] | Appearance at RT [3] | NOD2 activation (NF-κB/SEAP reporter, OD at 620 nm) (human NOD2 (hNOD2)) | Oxidative degradation, products by HPLC-MS [4]
8 | CC(=O)N[C@H]1C(O)O[C@H](CO)[C@@H](O)[C@@H]1O[C@H](C)C(=O)N[C@@H](C)C(=O)N[C@H](CCC(=O)NCc1cn(CC(=O)O[C@H]2CC[C@@]3(C)C(=CC[C@H]4[C@@H]5CC[C@H]([C@H](C)CCCC(C)C)[C@@]5(C)CC[C@@H]43)C2)nn1)C(N)=O (stereo partly shown) [Example 3, MDP-Chol [Click]] | – | – | hazy | suspension | Gelly/hazy/precipitate | comparable | –
9 | CC(=O)N[C@H]1[C@@H](OCc2ccccc2)O[C@H](CO)[C@@H](O)[C@@H]1O[C@H](C)C(=O)N[C@@H](C)C(=O)N[C@H](CCC(=O)NCc1cn(CC(=O)O[C@H]2CC[C@@]3(C)C(=CC[C@H]4[C@@H]5CC[C@H]([C@H](C)CCCC(C)C)[C@@]5(C)CC[C@@H]43)C2)nn1)C(N)=O [Example 8, MDP(Bn)-Chol[Click]] | – | – | suspension | suspension | Precipitate | able to activate NOD2, but seemingly to a lesser extent | –
10 | CCCCCCCCCCCCCCCCCC(=O)OC[C@H](COC(=O)NCCCC[C@H](NC(=O)CC[C@@H](NC(=O)[C@H](C)NC(=O)[C@@H](C)O[C@H]1[C@H](O)[C@@H](CO)OC(OCc2ccccc2)[C@@H]1NC(C)=O)C(N)=O)C(N)=O)OC(=O)CCCCCCCCCCCCCCCCC (stereo partly shown) [Example 13, MTP-b-DSG] | 5.49 min | – | suspension | suspension | Gel/precipitate | able to activate NOD2, but seemingly to a lesser extent | –
11 | CCCCCCCCCCCCCCCC(=O)OC[C@H](COP(=O)(O)OCCNC(=O)[C@H](C)NC(=O)CC[C@@H](NC(=O)[C@H](C)NC(=O)[C@@H](C)O[C@H]1[C@H](O)[C@@H](CO)OC(OCc2ccccc2)[C@@H]1NC(C)=O)C(N)=O)OC(=O)CCCCCCCCCCCCCCC (stereo partly shown) [Example 14, MTP(Bn)-a-DPPE] | 3.5 min | 3.61 min | – | – | – | – | –
12 | CCCCCCCCCCCCCCCC(=O)OC[C@H](COP(=O)(O)OCCNC(=O)[C@H](C)NC(=O)CC[C@@H](NC(=O)[C@H](C)NC(=O)[C@@H](C)O[C@H]1[C@H](O)[C@@H](CO)OC(OCc2ccccc2)[C@@H]1NC(C)=O)C(N)=O)OC(=O)CCCCCCCCCCCCCCC (stereo partly shown) [MTP(Bn)-a-DPPE] | – | – | – | – | – | – | mainly degraded via oxidation of the Bn-group to a benzoate group (+14) followed by hydrolysis of the benzoate (−104)
